Values of other authors as cited in patent publication EP3572069A1, “INCREASING SOLUBILITY AND BIOAVAILABILITY OF ENZALUTAMIDE” (Zentiva K.S., priority 2018, dated 2019).

Experiments:
[1] = background statement, no test described
[2] = not told

SMILES | Solubility [1] | Permeability [2]
CNC(=O)c1ccc(N2C(=S)N(c3ccc(C#N)c(C(F)(F)F)c3)C(=O)C2(C)C)cc1F [Amorphous form of enzalutamide, 4-(3-(4-cyano-3-(trifluoromethyl)phenyl)-5,5-dimethyl-4-oxo-2-thioxo-1-imidazolidinyl)-2-fluoro-N-methyl-benzamide] | dissolves better | 
CNC(=O)c1ccc(N2C(=S)N(c3ccc(C#N)c(C(F)(F)F)c3)C(=O)C2(C)C)cc1F [Crystalline enzalutamide, 4-(3-(4-cyano-3-(trifluoromethyl)phenyl)-5,5-dimethyl-4-oxo-2-thioxo-1-imidazolidinyl)-2-fluoro-N-methyl-benzamide] | very poorly soluble | 
CNC(=O)c1ccc(N2C(=S)N(c3ccc(C#N)c(C(F)(F)F)c3)C(=O)C2(C)C)cc1F [Enzalutamide, 4-(3-(4-cyano-3-(trifluoromethyl)phenyl)-5,5-dimethyl-4-oxo-2-thioxo-1-imidazolidinyl)-2-fluoro-N-methyl-benzamide] |  | high permeability
